# Laboratory results from article PMC13608006 (Journal of medicinal chemistry, 2018).
# Experiments:
# [1] = tested on: PV-1; assay type: cell-based, poliovirus-1; details: SI50 = CC50/EC50
# [2] = tested on: EV-A71; assay: antiviral CPE assay, anti-EV-A71 in LLC cells; assay type: cell-based, enterovirus 71 (EV-A71); details: SI50 = CC50/EC50
# [3] = tested on: CVB3-H3-C179F; assay type: cell-based, coxsackievirus B3
# [4] = tested on: CV-B3 (CVB3-H3); assay type: cell-based, coxsackievirus B3; details: SI50 = CC50/EC50
# [5] = in vitro; details: human
SMILES,SI50 (PV-1 in HeLa cells) [1],SI50 (EV-A71 in LLC cells) [2],inhibition of CVB3-H3-C179F (missense mutation in the 2C coding domain) [3],SI50 (CV-B3 in HeLa cells) [4],CC50 [5] [µM],CC50 ([5]; CC50 (anti-PV-1 in HeLa cells column)) [µM]
"CC(C)n1ncc2c(C(=O)Nc3ccccc3F)cc(-c3cccs3)nc21 [JX001, N-(2-Fluorophenyl)-1-isopropyl-6-(thiophen-2-yl)-1H-pyrazolo[3,4-b]pyridine-4-carboxamide]",SI50: 1.8,SI50: 21.7,resistant,SI50: 8.9,,
"CC(C)n1ncc2c(C(=O)Nc3cccc(S(N)(=O)=O)c3)cc(-c3cccs3)nc21 [JX025, 1-Isopropyl-N-(3-sulfamoylphenyl)-6-(thiophen-2-yl)-1H-pyrazolo[3,4-b]pyridine-4-carboxamide]",SI50: 10.0,SI50: 19.2,,,> 200,50
"CNS(=O)(=O)c1cccc(NC(=O)c2cc(-c3cccs3)nc3c2cnn3C(C)C)c1 [JX053, 1-Isopropyl-N-(3-(N-methylsulfamoyl)phenyl)-6-(thiophen-2-yl)-1H-pyrazolo[3,4-b]pyridine-4-carboxamide]",,SI50: 35.7,,SI50: 24.0,,
"CC(C)n1ncc2c(C(=O)Nc3cccnc3)cc(-c3cccs3)nc21 [JX056, 1-Isopropyl-N-(pyridin-3-yl)-6-(thiophen-2-yl)-1H-pyrazolo-[3,4-b]pyridine-4-carboxamide]",SI50: 2.5,SI50: >400.0,,SI50: 62.5,,
"CC(C)n1ncc2c(C(=O)Nc3ccccn3)cc(-c3ccsc3)nc21 [JX057, 1-Isopropyl-N-(pyridin-2-yl)-6-(thiophen-3-yl)-1H-pyrazolo-[3,4-b]pyridine-4-carboxamide]",,SI50: 31.3,,SI50: 15.0,,
"CC(C)n1ncc2c(C(=O)Nc3ncccn3)cc(-c3ccsc3)nc21 [JX058, 1-Isopropyl-N-(pyrimidin-2-yl)-6-(thiophen-3-yl)-1H-pyrazolo[3,4-b]pyridine-4-carboxamide]",,SI50: 41.7,,SI50: 33.3,,
"CC(C)n1ncc2c(C(=O)Nc3ccncn3)cc(-c3ccsc3)nc21 [JX059, 1-Isopropyl-N-(pyrimidin-4-yl)-6-(thiophen-3-yl)-1H-pyrazolo[3,4-b]pyridine-4-carboxamide]",,SI50: >250.0,,SI50: >166.7,,
"CC(C)n1ncc2c(C(=O)Nc3cccnc3)cc(-c3ccsc3)nc21 [JX060, 1-Isopropyl-N-(pyridin-3-yl)-6-(thiophen-3-yl)-1H-pyrazolo-[3,4-b]pyridine-4-carboxamide]",,SI50: 15.4,,SI50: 30.0,,
"CC(C)n1ccc2c(C(=O)Nc3cccnc3)cc(-c3cccs3)nc21 [JX062, 1-Isopropyl-N-(pyridin-3-yl)-6-(thiophen-2-yl)-1H-pyrrolo-[2,3-b]pyridine-4-carboxamide]",,SI50: 31.3,,SI50: 13.8,,
"CC(C)n1ncc2c(C(=O)Nc3cccc(C(N)=O)c3)cc(-c3cccs3)nc21 [JX064, N-(3-Carbamoylphenyl)-1-isopropyl-6-(thiophen-2-yl)-1H-pyrazolo[3,4-b]pyridine-4-carboxamide]",SI50: 2.9,SI50: 31.3,,SI50: 25.7,,
"CC(C)n1ncc2c(C(=O)Nc3cncnc3)cc(-c3cccs3)nc21 [JX066, 1-Isopropyl-N-(pyrimidin-5-yl)-6-(thiophen-2-yl)-1H-pyrazolo[3,4-b]pyridine-4-carboxamide]",SI50: 1.8,SI50: 50.0,,SI50: 25.7,,
"CC(C)n1ncc2c(C(=O)Nc3cc(S(N)(=O)=O)ccc3F)cc(-c3cccs3)nc21 [JX068, N-(2-Fluoro-5-sulfamoylphenyl)-1-isopropyl-6-(thiophen-2-yl)-1H-pyrazolo[3,4-b]pyridine-4-carboxamide]",SI50: 2.9,SI50: 50.0,,SI50: 25.7,,
"CC(C)n1ncc2c(C(=O)Nc3ccc(F)c(S(N)(=O)=O)c3)cc(-c3cccs3)nc21 [JX069, N-(4-Fluoro-3-sulfamoylphenyl)-1-isopropyl-6-(thiophen-2-yl)-1H-pyrazolo[3,4-b]pyridine-4-carboxamide]",,SI50: 62.5,,SI50: >181.8,,
"CC(C)n1ncc2c(C(=O)Nc3ccccn3)cc(-c3ccccc3)nc21 [JX070, 1-Isopropyl-6-phenyl-N-(pyridin-2-yl)-1H-pyrazolo[3,4-b]-pyridine-4-carboxamide]",,SI50: 17.9,,SI50: 11.8,,
"CC(C)n1ncc2c(C(=O)Nc3ccccn3)cc(C3CC3)nc21 [JX071, 6-Cyclopropyl-1-isopropyl-N-(pyridin-2-yl)-1H-pyrazolo[3,4-b]pyridine-4-carboxamide]",,SI50: 5.3,,SI50: 5.3,,
"CC(C)n1ccc2c(C(=O)Nc3ccccn3)cc(-c3cccs3)nc21 [JX072, 1-Isopropyl-N-(pyridin-2-yl)-6-(thiophen-2-yl)-1H-pyrrolo-[2,3-b]pyridine-4-carboxamide]",,SI50: >166.7,,SI50: 8.5,,
"CC(C)n1ncc2c(C(=O)Nc3cc(C(N)=O)ccc3F)cc(-c3cccs3)nc21 [JX073, N-(5-Carbamoyl-2-fluorophenyl)-1-isopropyl-6-(thiophen-2-yl)-1H-pyrazolo[3,4-b]pyridine-4-carboxamide]",SI50: 3.8,SI50: 50.0,,SI50: 23.5,,
"CC(C)n1ncc2c(C(=O)Nc3ccc(F)cn3)cc(-c3cccs3)nc21 [JX075, N-(5-Fluoropyridin-2-yl)-1-isopropyl-6-(thiophen-2-yl)-1H-pyrazolo[3,4-b]pyridine-4-carboxamide]",,SI50: >166.7,,SI50: 53.6,,
